The text below walks through data of patent publication US20230256095A1, “DYES FOR USE IN A METHOD OF TREATMENT OF VITREOUS OPACITY-RELATED DISEASES” (UNIVERSITEIT GENT, priority 2020, published 2023).

This assay concerns the target T1, type I collagen fibers (Rattus norvegicus, UniProt P02454+P02466).
T1 construct: type I collagen from the rat tail; purchased GIBCO; host or cells: rat tail (tissue-derived)
Put plainly: Photo-ablation of artificial floaters with nanosecond laser. Particulars: 0.1 mg/ml as printed. The procedure: Collagen fibers were prepared from type I collagen from the rat tail (GIBCO; concentration of 3 mg/ml) as described in Sauvage et al., 2019, ACS Nano, 13, 8401-8416. 5 ml of PBS was pipetted in a 15 ml falcon tube. 330 μL of the PBS solution was replaced by 330 μL collagen type I and the solution was vortexed. Sodium hydroxide (0.1 M) (VWR, Radnor, USA) was added to the acid solution of collagen to adjust pH to 7.4. The solution was vortexed again and placed for one hour in the incubator at 37° C. The final concentration of the collagen was 0.2 mg/ml.
First, dark-field microscopy imaging was performed to locate and align the nanosecond laser (Opolette HE 355 LD, OPOTEK Inc., CA, USA) on the artificial collagen fibers in the sample. Samples of either artificial or human opacities treated with TB, ICG and ICG nanoparticles were then illuminated with the laser (<7 ns). The wavelength of the laser light was 561 nm and the energy was set at ±800 μJ. A beam expander (#GBE05-A, Thorlabs) combined with iris diaphragm (#D37SZ, Thorlabs) were used to adjust the diameter of the laser beam to 150 μm (so that 800 μJ corresponded to a laser fluence of 4.5 J/cm^2). The laser pulse energy was monitored by an energy meter (J-25 MB-HE&LE, Energy Max-USB/RS sensors, Coherent) synchronized with the pulsed-laser. The set-up was made in such way to illuminate the sample shot by shot. Videos of the sample were made during illumination with NIS software. Same experiments were performed with human opacities Comparison Between Free ICG, PAH-ICG NPs and HSA-ICG NPs in Water and Bovine Vitreous.

T1 sequence (P02454 152-1207 limits assumed): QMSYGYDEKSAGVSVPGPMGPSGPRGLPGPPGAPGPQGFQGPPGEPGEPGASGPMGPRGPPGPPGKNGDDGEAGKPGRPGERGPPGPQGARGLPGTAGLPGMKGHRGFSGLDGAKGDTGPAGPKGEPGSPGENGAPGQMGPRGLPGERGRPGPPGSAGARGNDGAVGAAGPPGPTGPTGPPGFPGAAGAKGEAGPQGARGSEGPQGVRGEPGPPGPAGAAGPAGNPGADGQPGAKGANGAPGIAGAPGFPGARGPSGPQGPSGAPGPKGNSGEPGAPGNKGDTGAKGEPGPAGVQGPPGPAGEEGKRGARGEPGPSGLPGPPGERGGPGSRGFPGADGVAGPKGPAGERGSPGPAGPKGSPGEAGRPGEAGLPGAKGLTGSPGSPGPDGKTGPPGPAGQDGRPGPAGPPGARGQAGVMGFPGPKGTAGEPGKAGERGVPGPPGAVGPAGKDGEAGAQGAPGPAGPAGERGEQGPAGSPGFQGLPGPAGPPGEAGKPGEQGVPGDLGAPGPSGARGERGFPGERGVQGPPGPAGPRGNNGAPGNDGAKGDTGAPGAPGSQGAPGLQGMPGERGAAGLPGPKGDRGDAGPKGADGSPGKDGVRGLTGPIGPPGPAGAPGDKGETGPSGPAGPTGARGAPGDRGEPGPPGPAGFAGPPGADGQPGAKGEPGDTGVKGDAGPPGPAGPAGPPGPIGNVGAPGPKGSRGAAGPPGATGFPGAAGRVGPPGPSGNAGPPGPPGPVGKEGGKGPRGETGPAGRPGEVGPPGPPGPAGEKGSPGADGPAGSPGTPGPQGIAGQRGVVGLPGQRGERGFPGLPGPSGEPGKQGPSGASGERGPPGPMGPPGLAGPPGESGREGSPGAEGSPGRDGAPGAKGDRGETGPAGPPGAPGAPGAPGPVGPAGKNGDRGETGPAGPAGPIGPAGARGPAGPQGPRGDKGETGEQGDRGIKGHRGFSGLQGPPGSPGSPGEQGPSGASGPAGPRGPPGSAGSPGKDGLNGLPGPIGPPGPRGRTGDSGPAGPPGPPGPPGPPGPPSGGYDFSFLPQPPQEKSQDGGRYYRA
T1 sequence (P02466 86-1125 limits assumed): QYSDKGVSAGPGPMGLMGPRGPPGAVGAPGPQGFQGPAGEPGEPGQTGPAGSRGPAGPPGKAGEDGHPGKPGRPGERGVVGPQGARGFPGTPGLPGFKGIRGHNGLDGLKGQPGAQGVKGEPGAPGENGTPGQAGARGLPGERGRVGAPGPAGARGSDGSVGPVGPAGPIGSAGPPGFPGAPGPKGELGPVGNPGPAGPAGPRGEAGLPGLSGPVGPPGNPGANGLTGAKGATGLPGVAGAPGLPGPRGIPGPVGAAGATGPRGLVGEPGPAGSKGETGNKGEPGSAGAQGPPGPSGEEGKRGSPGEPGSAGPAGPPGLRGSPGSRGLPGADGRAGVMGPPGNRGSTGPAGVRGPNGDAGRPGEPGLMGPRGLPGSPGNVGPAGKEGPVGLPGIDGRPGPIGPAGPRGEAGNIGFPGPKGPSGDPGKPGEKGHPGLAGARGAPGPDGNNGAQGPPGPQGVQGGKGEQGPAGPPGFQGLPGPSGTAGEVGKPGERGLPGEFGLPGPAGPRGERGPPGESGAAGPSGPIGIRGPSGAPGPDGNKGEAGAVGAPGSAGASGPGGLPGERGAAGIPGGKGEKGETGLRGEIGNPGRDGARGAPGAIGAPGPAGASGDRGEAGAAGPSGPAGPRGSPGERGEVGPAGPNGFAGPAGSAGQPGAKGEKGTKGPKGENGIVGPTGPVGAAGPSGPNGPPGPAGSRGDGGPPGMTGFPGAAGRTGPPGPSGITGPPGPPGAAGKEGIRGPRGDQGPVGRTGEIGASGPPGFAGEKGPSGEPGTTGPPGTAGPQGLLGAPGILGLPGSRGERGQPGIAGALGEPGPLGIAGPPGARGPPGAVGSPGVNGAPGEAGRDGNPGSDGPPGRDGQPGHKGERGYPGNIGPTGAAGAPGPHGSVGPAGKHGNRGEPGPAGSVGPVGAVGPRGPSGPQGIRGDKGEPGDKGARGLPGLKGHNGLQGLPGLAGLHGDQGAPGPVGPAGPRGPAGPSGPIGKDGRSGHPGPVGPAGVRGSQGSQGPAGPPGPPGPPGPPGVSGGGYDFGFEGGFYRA

Regarding `Cc1cc(-c2ccc(/N=N/c3c(S(=O)(=O)O)cc4cc(S(=O)(=O)O)cc(N)c4c3O)c(C)c2)ccc1/N=N/c1c(S(=O)(=O)O)cc2cc(S(=O)(=O)O)cc(N)c2c1O` [free TB, Trypan Blue], the “binding and destruction of type I collagen fibers” value was “can bind and efficiently destroy type I collagen fibers”.
